The text below walks through data of patent publication US20060222657A1, “Polypeptide transduction and fusogenic peptides” (priority 2003, published 2006).

Series [1] relates to tex.loxP.EG cells. Briefly: TAT-Cre mediated recombination of lox-stop-lox eGFP reporter, flow cytometry of live cells. The following applies: for effect on TAT-Cre recombination (endocytosis inhibitors): pretreated 30′ in serum-free media, then TAT-Cre for 1 h, replated overnight; for effect on TAT-Cre recombination (free glycosaminglyans): incubated with TAT-Cre 1 hr in serum-free media, eGFP after 16 hr. It is filed as cell-based, murine.

The subject of series [2] is tex.loxP.EG T cells. Kind of series: Cell surface binding of TAT-Cre. It is filed as cell-based, murine. The note with it: free glycosaminglyans in increasing concentrations, 1 hr, serum-free media. How it is done: Full-length TAT protein has previously been reported to bind strongly to cell surface heparin sulfate proteoglycans. […] To determine whether cell surface binding was a necessary and prerequisite step for TAT-Cre internalization, cells were incubated with TAT-Cre and increasing concentrations of free glycosaminglyans for 1 hr in serum-free media, then washed and replated the cells in complete media, and measured eGFP expression after 16 hr.

Series [3] has as its system cells. The note with it: cited from earlier work.
For series [4], the system named is cell surface. The following applies: increasing concentrations of polyanions; cited from earlier work.
For series [5], the system named is tex.loxP.EG cells. Briefly: TAT-Cre-488 and FM4-64 internalization by flow cytometry. The following applies: nystatin 30′ pretreatment, then TAT-Cre-488 and FM4-64 for 1 h. It is filed as cell-based, murine. The protocol:
Recombination experiments. To measure the rate of TAT-Cre internalization, tex.loxP.EG cells were plated at 5×10^5 cells/well and treated with 0.5 μM TAT-Cre in RPMI +/− 10% FBS. After each time period, cells were trypsinized for 2′, washed and replated into complete media overnight. For all drug treatments [0-50 μg/mL chondroitin sulfate A, B, or C (Sigma), 0-25 μg/mL heparin (Sigma), 0-100 μg/mL nystatin (Fluka), 0-5 mM […] (Sigma), 0-5 mM amiloride (Sigma) and 0-10 μM cytochalasin D (Sigma)], cells were washed and pretreated for 30′ in serum-free media before the addition of TAT-Cre. Cells were maintained for 1 h in the presence of inhibitors (except for cyclodextrin) aftex which they were washed twice and replated overnight in media containing serum. To measure the effect of nystatin on TAT-Cre internalization, tex.loxP.EG cells were pretreated as described with 10, 25 or 50 μg/mL nystatin for 30′ before the addition of 2 μM TAT-Cre-488 and […] FM4-64. After 1 h, the cells were trypsinized and the fluorescence measured by flow cytometry. […] LacZ expression was measured by in situ β-galactosidase staining (Stratagene). For peptide treatments, tex.loxP.EG cells maintained in RPMI +10% FBS were incubated TAT-Cre and either […] HA2-tat or tat peptide for 16-20 h after which eGFP expression was measured by flow cytometry. […]
In general terms: Flow cytometry measures light scatter and fluorescence of single cells or particles in a stream.

Series [6] relates to 3T3 LacZ reporter cells. Kind of series: Cytotoxicity (loss of cells) of chloroquine treatment. The following applies: effective dose of chloroquine; multiple several cell lines. It is filed as cell-based. The protocol:
To recombine DNA and induce eGFP expression, TAT-Cre must escape from macropinosomes. […] Therefore to enhance release from macropinosomes, 3T3 LacZ reporter cells were treated with a sub-threshold dose of TAT-Cre in combination with increasing concentrations of chloroquine, an ion-transporting ATPase inhibitor that prevents vesicle acidification leading to endosomal disruption (FIG. 5a).

Series [7] has as its system mammalian cells. Kind of series: TAT-Cre transduction efficiency and cytotoxicity with endosomal release agents (summary statement). It is filed as cell-based.
Series [8] concerns 3T3 loxP.lacZ cells. Briefly: TAT-Cre recombination of lacZ reporter, in situ β-galactosidase staining. The following applies: 100 μM and 200 μM chloroquine with sub-threshold TAT-Cre, overnight, DMEM +10% serum. It is filed as cell-based.
Description: 3T3 loxP.lacZ cells containing a lacZ reporter expressed after recombination were grown in DMEM (Invitrogen) containing 10% fetal bovine serum. Following recombination cells expressing lacZ were assayed by in situ beta-galactosidase staining (Stratagene).
To determine the effect of endosomal release by chloroquine, 3T3 loxP.lacZ cells were treated with 0. 25 μM TAT-Cre and 0-200 μM chlorocguine (Sigma) in DMEM +10% FBS overnight. LacZ expression was measured by in situ β-galactosidase staining (Stratagene).
For series [9], the system named is viral promoter within cells in culture. The note with it: cited from earlier work.

“Also recorded” adds a separate entry of the source. Where no end group is shown, it is not given here. [ ]: non-standard residue; d: D form.

As to `N=C(N)NC(=O)c1nc(Cl)c(N)nc1N` [amiloride], the “effect on TAT-Cre recombination (endocytosis inhibitors)” value (from here on “effect … (endocytosis inhibitors)”) in series [1] was “dose-dependent inhibition of TAT-Cre transduction into the cells and lack of recombination; also recorded: dose-dependent decrease in recombination”.

Consider chondroitin sulfate B, for which, in [2], the “effect on surface binding of TAT-Cre” value was “prevented surface binding of TAT-Cre”. For the same molecule, in series [1], the “effect on TAT-Cre recombination (free glycosaminglyans)” value (“effect … (free glycosaminglyans)” below) is “strongly inhibited subsequent recombination”.

LGISYGRKKRRQRRRPPQ [TAT-(43-60)]: the “cell internalization and nuclear localization” value in series [3] was “fully retained the ability for cell internalization and nuclear localization”.

With “GRKKRRQ RRRPPQ (GRKKRRQRRRPPQ) [TAT-(48-60)]”, in [3], the “cell internalization and nuclear localization” value is “fully retained the ability for cell internalization and nuclear localization”; the “transduction efficiency relative to other active peptide sequences” value is recorded as “more efficiently transduced than other active peptide sequences”.

In the case of “GRKKRRQRRR (G[dR][dK][dK][dR][dR][dQ][dR][dR][dR]) [TAT D-isomer peptide, control TAT peptide]”, the “effect of peptide on TAT-Cre recombination (in words)” value in [1] is reported as “only minor increases in recombination”.

With FITKALGISYGRKKRR [TAT-(37-53)], the “cell internalization and nuclear localization” value in series [3] was “not able to transduce into cells”.

As to `C=C1[C@@H](C)[C@H]2[C@H](Cc3ccccc3)NC(=O)[C@]23[C@H](OC(C)=O)/C=C/[C@@](C)(O)C(=O)[C@@H](C)C/C=C/[C@H]3[C@@H]1O` [cytochalasin D], the “effect … (endocytosis inhibitors)” value in series [1] is “dose-dependent inhibition of TAT-Cre transduction into the cells and lack of recombination; also recorded: dose-dependent decrease in recombination”.

For heparin, the “effect on intracellular accumulation of TAT” value in [4] is reported as “competitively blocked”. For the same molecule, in series [2], the “effect on surface binding of TAT-Cre” value was “prevented surface binding of TAT-Cre”. The “effect … (free glycosaminglyans)” value in [1] is on record as “strongly inhibited subsequent recombination”.

As to `OC[C@H]1O[C@@H]2O[C@H]3[C@H](O)[C@@H](O)[C@@H](O[C@H]4[C@H](O)[C@@H](O)[C@@H](O[C@H]5[C@H](O)[C@@H](O)[C@@H](O[C@H]6[C@H](O)[C@@H](O)[C@@H](O[C@H]7[C@H](O)[C@@H](O)[C@@H](O[C@H]8[C@H](O)[C@@H](O)[C@@H](O[C@H]1[C@H](O)[C@H]2O)O[C@@H]8CO)O[C@@H]7CO)O[C@@H]6CO)O[C@@H]5CO)O[C@@H]4CO)O[C@@H]3CO` [β-cyclodextrin], the “effect … (endocytosis inhibitors)” value in series [1] is listed as “dose-dependent inhibition of recombination”.

Turning to dextran sulphate, the “effect on intracellular accumulation of TAT” value in [4] is recorded as “competitively blocked”.

As for `C[C@@H]1[C@H](O)[C@@H](C)/C=C/C=C/CC/C=C/C=C/C=C/C=C/C(O[C@H]2O[C@H](C)[C@@H](O)[C@H](N)[C@@H]2O)CC2O[C@](O)(CC(O)C(O)CCC(O)CC(O)CC(O)CC(=O)O[C@H]1C)CC(O)C2C(=O)O` (stereo partly drawn) [nystatin], in [5], the “FM4-64 endosomal dye internalization after nystatin treatment” value is listed as “only a minor decrease” and the “TAT-Cre-488 internalization after nystatin treatment” value is recorded as “near complete loss of TAT-Cre-488 internalization”. For the same molecule, the “effect of nystatin pretreatment on HA2-TAT-mediated enhancement of recombination” value in series [1] (nystatin 30′ in serum-free media, then TAT-Cre +/− 5 mM HA2-TAT for 1 h) was “inhibited HA2-TAT-mediated enhancement of recombination; also recorded: blocks the effect of HA2-TAT peptide”. In addition, the “effect … (endocytosis inhibitors)” value in series [1] is given as “dose-dependent inhibition of recombination”.

With `CCN(CC)CCCC(C)Nc1ccnc2cc(Cl)ccc12` (stereo not drawn) [chloroquine], the cytotoxicity result in [6] is “extensive cytotoxicity”. Moreover, in series [7], the cytotoxicity result was “extensive cytotoxicity” and the “effect on transduction efficiency of TAT-Cre” value is recorded as “moderately increased transduction efficiency”. The “effect on TAT-Cre recombination and LacZ expression” value in series [8] was “significant increase in recombination and LacZ expression; also recorded: increases TAT-Cre recombination”.

For the molecule chondroitin sulfate C, the “effect on surface binding of TAT-Cre” value in series [2] was “prevented surface binding of TAT-Cre”. The “effect … (free glycosaminglyans)” value in [1] was “strongly inhibited subsequent recombination”.

B1: TAT protein: HIV-1 transcriptional activator TAT protein, full length (protein)
chain: MEPVDPRLEPWKHPGSQPKTACTNCYCKKCCFHCQVCFITKALGISYGRKKRRQRRRPPQGSQTHQVSLSKQPTSQSRGDPTGPKE
modifications: transducing protein
Turning to B1, the “concentration sufficient to induce reporter activity” value in series [9] (added to the culture media, no external perturbations) is listed as 1 nM. The “treatment time of maximal increase in biological activity” value in [9] (all cell types used) was 5 minutes.

B2: Cre: control Cre protein without TAT, expressed and purified under identical conditions (protein, UniProt P06956 1-343, looked up)
Recombinase cre: MSNLLTVHQNLPALPVDATSDEVRKNLMDMFRDRQAFSEHTWKMLLSVCRSWAAWCKLNNRKWFPAEPEDVRDYLLYLQARGLAVKTIQQHLGQLNMLHRRSGLPRPSDSNAVSLVMRRIRKENVDAGERAKQALAFERTDFDQVRSLMENSDRCQDIRNLAFLGIAYNTLLRIAEIARIRVKDISRTDGGRMLIHIGRTKTLVSTAGVEKALSLGVTKLVERWISVSGVADDPNNYLFCRVRKNGVAAPSATSQLSTRALEGIFEATHRLIYGAKDDSGQRYLAWSGHSARVGAARDMARAGVSIPEIMQAGGWTNVNIVMNYIRNLDSETGAMVRLLEDGD
B2: the “site specific recombination and eGFP expression after treatment” value in [1] (tex.loxP.EG cells, eGFP measured 16-20 h later by flow cytometry) was “failed to undergo recombination and express eGFP”.
